Test results taken from PubChem BioAssay AID1963983 (Molecular Pharmacology Branch, DTP, NCI, 2024).
Several values for one entry are separate records, joined by “and”; a condition that tells them apart may be missing. Equal values may be shown once.

System: 186277-243-T-J2-PDC multi-cell spheroid viability
Assay: Anticancer human tumor 186277-243-T-J2-PDC patient-derived colon adenocarcinoma cell line growth inhibition [PI3K]
Details: for viability, T/C: stronger effect = lower value
How it was run: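 Targeted small molecules plus PI3K inhibitors, half-log dose series from Cmax (default top 10 microM), were applied to heterotypic spheroids of cancer cells with HUVEC and MSCs. Viability indicated growth inhibition.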

[1] = curve of first compound, second compound 0.0316 µM
[2] = curve of first compound, second compound 0.1 µM
[3] = curve of first compound, second compound 0.316 µM
[4] = curve of first compound, second compound 1 µM
[5] = curve of first compound, second compound 3.16 µM
[6] = curve of first compound, second compound 10 µM
[7] = second compound 0.0316 µM, first compound 0.0316 µM
[8] = second compound 0.0316 µM, first compound 0.1 µM
[9] = second compound 0.0316 µM, first compound 0.316 µM
[10] = second compound 0.0316 µM, first compound 1 µM
[11] = second compound 0.0316 µM, first compound 3.16 µM
[12] = second compound 0.0316 µM, first compound 10 µM
[13] = second compound 0.1 µM, first compound 0.0316 µM
[14] = second compound 0.1 µM, first compound 0.1 µM
[15] = second compound 0.1 µM, first compound 0.316 µM
[16] = second compound 0.1 µM, first compound 1 µM
[17] = second compound 0.1 µM, first compound 3.16 µM
[18] = second compound 0.1 µM, first compound 10 µM
[19] = second compound 0.316 µM, first compound 0.0316 µM
[20] = second compound 0.316 µM, first compound 0.1 µM
[21] = second compound 0.316 µM, first compound 0.316 µM
[22] = second compound 0.316 µM, first compound 1 µM
[23] = second compound 0.316 µM, first compound 3.16 µM
[24] = second compound 0.316 µM, first compound 10 µM
[25] = second compound 1 µM, first compound 0.0316 µM
[26] = second compound 1 µM, first compound 0.1 µM
[27] = second compound 1 µM, first compound 0.316 µM
[28] = second compound 1 µM, first compound 1 µM
[29] = second compound 1 µM, first compound 3.16 µM
[30] = second compound 1 µM, first compound 10 µM
[31] = second compound 3.16 µM, first compound 0.0316 µM
[32] = second compound 3.16 µM, first compound 0.1 µM
[33] = second compound 3.16 µM, first compound 0.316 µM
[34] = second compound 3.16 µM, first compound 1 µM
[35] = second compound 3.16 µM, first compound 3.16 µM
[36] = second compound 3.16 µM, first compound 10 µM
[37] = second compound 10 µM, first compound 0.0316 µM
[38] = second compound 10 µM, first compound 0.1 µM
[39] = second compound 10 µM, first compound 0.316 µM
[40] = second compound 10 µM, first compound 1 µM
[41] = second compound 10 µM, first compound 3.16 µM
[42] = second compound 10 µM, first compound 10 µM
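Further: spheroids exposed to compounds for seven days before viability reading.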
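Wherever viability, T/C is given: 100% = DMSO vehicle control viability.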

Cn1cnc2c(F)c(Nc3ccc(Br)cc3Cl)c(C(=O)NOCCO)cc21
viability, T/C (compound 0.00949 µM): 97.9% [middle of 4 runs] | viability, T/C (compound 0.03 µM): 87.4% [middle of 4 runs] | viability, T/C (compound 0.0949 µM): 61.9% [middle of 4 runs] | viability, T/C (compound 0.3 µM): 38% and 43.4% (2×) and 37.6% | viability, T/C (compound 0.949 µM): 22.7% [middle of 4 runs] | viability, T/C (compound 3 µM): 9.95% [middle of 4 runs] | IC50 (curve of compound): 193 nM [middle of 4 runs]

C#Cc1c(F)ccc2cc(O)cc(-c3ncc4c(N5CC6CCC(C5)N6)nc(OCC56CCCN5CC(F)C6)nc4c3F)c12 (configuration not stated) + CC(Nc1ncnc2nc[nH]c12)c1cc2cccc(Cl)c2c(=O)n1-c1ccccc1
IC50 [1]: 0.0941 µM | IC50 [2]: 0.0931 µM | IC50 [3]: 0.0875 µM | IC50 [4]: 0.0789 µM | IC50 [5]: 0.0529 µM | IC50 [6]: < 0.0316 µM | viability, T/C [7]: 98.9% | viability, T/C [8]: 47.3% | viability, T/C [9]: 19.4% | viability, T/C [10]: 11.3% | viability, T/C [11]: 10.3% | viability, T/C [12]: 9.72% | viability, T/C [13]: 106% | viability, T/C [14]: 46.3% | viability, T/C [15]: 21.2% | viability, T/C [16]: 13.3% | viability, T/C [17]: 16.1% | viability, T/C [18]: 8% | viability, T/C [19]: 102% | viability, T/C [20]: 41% | viability, T/C [21]: 25.5% | viability, T/C [22]: 20.3% | viability, T/C [23]: 14.3% | viability, T/C [24]: 11.2% | viability, T/C [25]: 93.6% | viability, T/C [26]: 38% | viability, T/C [27]: 18% | viability, T/C [28]: 19.6% | viability, T/C [29]: 11% | viability, T/C [30]: 6.62% | viability, T/C [31]: 68.6% | viability, T/C [32]: 26.3% | viability, T/C [33]: 14.9% | viability, T/C [34]: 12.1% | viability, T/C [35]: 7.19% | viability, T/C [36]: 4.96% | viability, T/C [37]: 31.9% | viability, T/C [38]: 12.6% | viability, T/C [39]: 8.73% | viability, T/C [40]: 6.7% | viability, T/C [41]: 4.26% | viability, T/C [42]: 4.02%

C=CC(=O)N1CCN(c2nc(=O)n(-c3c(C)ccnc3C(C)C)c3nc(-c4c(O)cccc4F)c(F)cc23)C(C)C1 (configuration not stated) + COc1c(OCCCN2CCOCC2)ccc2c3n(c(=NC(=O)c4cnc(N)nc4)nc12)CCN3
IC50 (curve of first compound, second compound 0.00316 µM): > 10 µM | IC50 (curve of first compound, second compound 0.01 µM): > 10 µM | IC50 [1]: 1.87 µM | IC50 [2]: < 0.0316 µM | IC50 [3]: < 0.0316 µM | IC50 [4]: < 0.0316 µM | viability, T/C (second compound 0.00316 µM, first compound 0.0316 µM): 102% | viability, T/C (second compound 0.00316 µM, first compound 0.1 µM): 88.7% | viability, T/C (second compound 0.00316 µM, first compound 0.316 µM): 88.1% | viability, T/C (second compound 0.00316 µM, first compound 1 µM): 88.1% | viability, T/C (second compound 0.00316 µM, first compound 3.16 µM): 93.2% | viability, T/C (second compound 0.00316 µM, first compound 10 µM): 73% | viability, T/C (second compound 0.01 µM, first compound 0.0316 µM): 93.1% | viability, T/C (second compound 0.01 µM, first compound 0.1 µM): 88.2% | viability, T/C (second compound 0.01 µM, first compound 0.316 µM): 94.4% | viability, T/C (second compound 0.01 µM, first compound 1 µM): 93.6% | viability, T/C (second compound 0.01 µM, first compound 3.16 µM): 87.8% | viability, T/C (second compound 0.01 µM, first compound 10 µM): 62.3% | viability, T/C [7]: 59.7% | viability, T/C [8]: 67.1% | viability, T/C [9]: 57.5% | viability, T/C [10]: 52.6% | viability, T/C [11]: 47.8% | viability, T/C [12]: 31.2% | viability, T/C [13]: 18.3% | viability, T/C [14]: 18.1% | viability, T/C [15]: 14.9% | viability, T/C [16]: 12.3% | viability, T/C [17]: 11.1% | viability, T/C [18]: 10.9% | viability, T/C [19]: 6.24% | viability, T/C [20]: 4.28% | viability, T/C [21]: 3.7% | viability, T/C [22]: 4.23% | viability, T/C [23]: 7.04% | viability, T/C [24]: 4.1% | viability, T/C [25]: 1.93% | viability, T/C [26]: 4.05% | viability, T/C [27]: 1.66% | viability, T/C [28]: 2.03% | viability, T/C [29]: 2.92% | viability, T/C [30]: 2.49%

CC(Nc1ncnc2nc[nH]c12)c1cc2cccc(Cl)c2c(=O)n1-c1ccccc1 (configuration not stated)
viability, T/C (compound 0.0316 µM): 97.5% [middle of 8 runs] | viability, T/C (compound 0.1 µM): 102% [middle of 8 runs] | viability, T/C (compound 0.316 µM): 101% [middle of 8 runs] | viability, T/C (compound 1 µM): 101% [middle of 8 runs] | viability, T/C (compound 3.16 µM): 98.6% [middle of 8 runs] | viability, T/C (compound 10 µM): 99.5% [middle of 8 runs] | IC50 (compound alone, run of 05/09/2023): > 10 µM

CCN1CCN(Cc2ccc(Nc3ncc(F)c(-c4cc(F)c5nc(C)n(C(C)C)c5c4)n3)nc2)CC1 + Cc1nc(NC(=O)N2CCCC2C(N)=O)sc1-c1ccnc(C(C)(C)C(F)(F)F)c1
IC50 [1]: > 1 µM | IC50 [2]: > 1 µM | IC50 [3]: > 1 µM | IC50 [4]: > 1 µM | IC50 [5]: < 0.00316 µM | IC50 [6]: < 0.00316 µM | viability, T/C (second compound 0.0316 µM, first compound 0.00316 µM): 96.7% | viability, T/C (second compound 0.0316 µM, first compound 0.01 µM): 116% | viability, T/C [7]: 107% | viability, T/C [8]: 139% | viability, T/C [9]: 147% | viability, T/C [10]: 137% | viability, T/C (second compound 0.1 µM, first compound 0.00316 µM): 97.4% | viability, T/C (second compound 0.1 µM, first compound 0.01 µM): 93% | viability, T/C [13]: 105% | viability, T/C [14]: 127% | viability, T/C [15]: 145% | viability, T/C [16]: 124% | viability, T/C (second compound 0.316 µM, first compound 0.00316 µM): 97.9% | viability, T/C (second compound 0.316 µM, first compound 0.01 µM): 114% | viability, T/C [19]: 104% | viability, T/C [20]: 103% | viability, T/C [21]: 116% | viability, T/C [22]: 92.5% | viability, T/C (second compound 1 µM, first compound 0.00316 µM): 101% | viability, T/C (second compound 1 µM, first compound 0.01 µM): 90.2% | viability, T/C [25]: 77.9% | viability, T/C [26]: 78.1% | viability, T/C [27]: 74% | viability, T/C [28]: 62.8% | viability, T/C (second compound 3.16 µM, first compound 0.00316 µM): 49.8% | viability, T/C (second compound 3.16 µM, first compound 0.01 µM): 47.5% | viability, T/C [31]: 42.1% | viability, T/C [32]: 37% | viability, T/C [33]: 41.4% | viability, T/C [34]: 28.6% | viability, T/C (second compound 10 µM, first compound 0.00316 µM): 15.8% | viability, T/C (second compound 10 µM, first compound 0.01 µM): 14.2% | viability, T/C [37]: 10.7% | viability, T/C [38]: 9% | viability, T/C [39]: 12.5% | viability, T/C [40]: 12%

Cn1ncc(Cl)c1-c1cc(C(=O)NC(CN)Cc2cccc(F)c2)sc1Cl (configuration not stated) + CC(Nc1ncnc2nc[nH]c12)c1cc2cccc(Cl)c2c(=O)n1-c1ccccc1
IC50 [1]: 1.5 µM | IC50 [2]: 1.33 µM | IC50 [3]: 1.08 µM | IC50 [4]: 0.516 µM | IC50 [5]: 0.304 µM | IC50 [6]: 0.182 µM | viability, T/C [7]: 82.5% | viability, T/C [8]: 83.6% | viability, T/C [9]: 55.5% | viability, T/C [10]: 56.8% | viability, T/C [11]: 46.1% | viability, T/C [12]: 15.4% | viability, T/C [13]: 84.1% | viability, T/C [14]: 90.4% | viability, T/C [15]: 54.2% | viability, T/C [16]: 56.1% | viability, T/C [17]: 44.3% | viability, T/C [18]: 17.5% | viability, T/C [19]: 99.9% | viability, T/C [20]: 86.9% | viability, T/C [21]: 60.9% | viability, T/C [22]: 48.8% | viability, T/C [23]: 44.6% | viability, T/C [24]: 16.1% | viability, T/C [25]: 97.4% | viability, T/C [26]: 78.3% | viability, T/C [27]: 48% | viability, T/C [28]: 43.1% | viability, T/C [29]: 37.1% | viability, T/C [30]: 13.1% | viability, T/C [31]: 83.8% | viability, T/C [32]: 70.6% | viability, T/C [33]: 45% | viability, T/C [34]: 31.8% | viability, T/C [35]: 25.6% | viability, T/C [36]: 5.44% | viability, T/C [37]: 85.1% | viability, T/C [38]: 60.3% | viability, T/C [39]: 39.3% | viability, T/C [40]: 25% | viability, T/C [41]: 18.7% | viability, T/C [42]: 3.49%
